Source: publication PMC5790914, “QStatin, a Selective Inhibitor of Quorum Sensing in Vibrio Species” (mBio, 2018)

Target: T1, SmcR (Vibrio vulnificus, UniProt Q9L8G8)
T1 construct: purified SmcR (dimer); SeMet-substituted SmcR for the crystals
Assay: ITC (two-sequential binding model; second Kd =[…]) and […] Å crystal structure of the soaked complex

T1 sequence (Q9L8G8 entry or part of it): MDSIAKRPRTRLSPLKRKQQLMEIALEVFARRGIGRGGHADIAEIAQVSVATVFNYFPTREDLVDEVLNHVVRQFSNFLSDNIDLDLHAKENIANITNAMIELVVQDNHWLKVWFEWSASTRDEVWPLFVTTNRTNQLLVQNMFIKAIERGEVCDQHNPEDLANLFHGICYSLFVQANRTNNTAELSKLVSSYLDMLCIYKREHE

O=S(=O)(c1ccc(Br)s1)n1cccn1 [377B6, 1-(5-bromothiophene-2-sulfonyl)-1H-pyrazole]
Kd: 470 nM
